Data: the supplement of paper PMC11061612

Assays:
EW-16 (Ewing's Sarcoma) [1] = experiment: Bliss excess, mean over the matrix (fraction); higher = more synergy
How it was run: (§1)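 Cell lines in DMEM/F12 or RPMI with 10% FBS were plated in 1536-well plates, held 24 hours at 37°C, 5% CO2, then given two-drug dose matrices for 72 hours (DMSO typically 0.2%). Viability was read by CellTiter-Glo 2.0 luminescence and scaled as inhibition from 0 (vehicle wells) to 1 (blank wells). Combination Emax is the second-highest inhibition in the matrix; Bliss excess is observed combination effect minus expected EA + EB − EA·EB, EA and EB being single-agent effects.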

[2] = test system: EPLC-272H (Other Solid Carcinomas); experiment: combination Emax (second highest fraction inhibited in the dose matrix, 72 h); higher = more inhibition; extreme values may be limits of the assay
How it was run: as §1

[3] = test system: Jurkat (T-Lymphoblastic Leukemia); experiment: as above
How it was run: as §1

COLO-792 (Melanoma) = experiment: as above
How it was run: as §1

[4] = test system: ESO26 (Esophageal Adenocarcinoma); experiment: as above
How it was run: as §1

[5] = test system: NCI-H716 (Colorectal Carcinoma); experiment: as above
How it was run: as §1

[6] = test system: DMS-53 (Small Cell Lung Carcinoma); experiment: as above
How it was run: as §1

RH-41 (Rhabdomyosarcoma) = experiment: as above
How it was run: as §1

[7] = test system: A253 (Head and Neck Carcinoma); experiment: as above
How it was run: as §1

A101D (Melanoma) = experiment: as above
How it was run: as §1

5637 (Bladder Carcinoma) = experiment: as above
How it was run: as §1

NB13 (Neuroblastoma) = experiment: as above
How it was run: as §1

[8] = test system: HCC1428 (Breast Carcinoma); experiment: as above
How it was run: as §1

[9] = test system: UACC-812 (Breast Carcinoma); experiment: as above
How it was run: as §1

[10] = test system: GCT (Other Solid Carcinomas); experiment: as above
How it was run: as §1

[11] = test system: KYSE-140 (Esophageal Squamous Cell Carcinoma); experiment: as above
How it was run: as §1

[12] = test system: OACp4C (Esophageal Adenocarcinoma); experiment: as above
How it was run: as §1

[13] = test system: LS-411N (Colorectal Carcinoma); experiment: as above
How it was run: as §1

[14] = test system: NCI-H2228 (Lung Adenocarcinoma); experiment: as above
How it was run: as §1

EW-16 (Ewing's Sarcoma) [15] = experiment: as above
How it was run: as §1
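Wherever Bliss excess, mean over the matrix is given: after 72 h of two-drug dosing.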

Row | Structure (SMILES) | Bliss excess (EW-16 (Ewing's Sarcoma) [1]) | combination Emax [2] | combination Emax [3] | combination Emax (COLO-792 (Melanoma)) | combination Emax [4] | combination Emax [5] | combination Emax [6] | combination Emax (RH-41 (Rhabdomyosarcoma)) | combination Emax [7] | combination Emax (A101D (Melanoma)) | combination Emax (5637 (Bladder Carcinoma)) | combination Emax (NB13 (Neuroblastoma)) | combination Emax [8] | combination Emax [9] | combination Emax [10] | combination Emax [11] | combination Emax [12] | combination Emax [13] | combination Emax [14] | combination Emax (EW-16 (Ewing's Sarcoma) [15])
1 | CN(CCO)CC[C@H](CSc1ccccc1)Nc1ccc(S(=O)(=O)NC(=O)c2ccc(N3CCC([C@@H](O)c4ccccc4-c4ccc(Cl)cc4)CC3)cc2)cc1S(=O)(=O)C(F)(F)F [AZD4320] + Cn1cnc2c(F)c(Nc3ccc(Br)cc3Cl)c(C(=O)NOCCO)cc21 [Selumetinib] (first compound max 1 µM, 7x7, partner max 3 µM) | 0.076 | 0.562 | 0.798 | 0.913 | 0.3 | 0.582 | 1 | 0.855 | 0.523 | 0.781 | 0.782 | 1 | 0.559 | 0.238 | 0.352 | 0.289 | 0.967 | 0.907 | 0.203 | 0.913
2 | COc1cc2ncnc(Nc3ccc(F)c(Cl)c3)c2cc1OCCCN1CCOCC1 [Gefitinib] + CC(C)n1c(=O)n(C)c2cnc3cc(F)c(-c4ccc(OCCCN5CCCCC5)nc4)cc3c21 [AZD1390] (first compound max 10 µM, 7x7, partner max 0.3 µM) | -0.0566 | 0.565 | 0.199 | 0.251 | 0.571 | 0.361 | 0.147 | 0.147 | 0.196 | 0.267 | 0.495 | 0.178 | 0.101 | 0.24 | 0.12 | 0.534 | 0.572 | 0.0453 | 0.203 | 0.176
3 | Cc1cc2ncnn2cc1Nc1ncc2c(n1)n(C1CCOCC1)c(=O)n2C [AZD7648] + C[C@@H]1COCCN1C2=NC(=NC(=C2)C3(CC3)[S@](=N)(=O)C)C4=C5C=CNC5=NC=C4 [AZD6738] (first compound max 10 µM, 7x7, partner max 10 µM) | 0.0269 | 0.879 | 0.814 | 0.386 | 0.234 | 0.539 | 0.153 | 0.705 | 0.77 | 0.778 | 0.632 | 0.919 | 0.201 | 0.267 | 0.245 | 0.927 | 0.666 | 0.723 | 0.514 | 0.69
4 | CN(CCO)CC[C@H](CSc1ccccc1)Nc1ccc(S(=O)(=O)NC(=O)c2ccc(N3CCC([C@@H](O)c4ccccc4-c4ccc(Cl)cc4)CC3)cc2)cc1S(=O)(=O)C(F)(F)F [AZD4320] + CCN(CCO)CCCOc1ccc2c(Nc3cc(CC(=O)Nc4cccc(F)c4)[nH]n3)ncnc2c1 [AZD2811] (first compound max 1 µM, 7x7, partner max 1 µM) | 0.14 | 0.635 | 0.512 | 0.781 | 0.112 | 0.298 | 0.949 | 0.828 | 0.467 | 0.667 | 0.898 | 1 | 0.754 | 0.12 | 0.239 | 0.334 | 0.863 | 0.567 | 0.271 | 0.973
5 | CN(CCO)CC[C@H](CSc1ccccc1)Nc1ccc(S(=O)(=O)NC(=O)c2ccc(N3CCC([C@@H](O)c4ccccc4-c4ccc(Cl)cc4)CC3)cc2)cc1S(=O)(=O)C(F)(F)F [AZD4320] + C[C@@H]1COCCN1C2=NC(=NC(=C2)C3(CC3)[S@](=N)(=O)C)C4=C5C=CNC5=NC=C4 [AZD6738] (first compound max 1 µM, 7x7, partner max 10 µM) | -0.101 | 0.936 | 0.955 | 0.692 | 0.628 | 0.647 | 0.994 | 0.964 | 0.892 | 0.891 | 0.91 | 1 | 0.708 | 0.275 | 0.304 | 0.878 | 0.95 | 0.943 | 0.466 | 0.932
6 | C[C@@H](c1ccc2nccn2c1)n1nnc2ncc(-c3cnn(C)c3)nc21 [Savolitinib] + Cc1c2c(nn1C)CSCc1cc(n(C)n1)CSc1cc(c3ccccc3c1)OCCCc1c(C(=O)O)n(C)c3c-2c(Cl)ccc13 [AZD5991] (first compound max 1 µM, 7x7, partner max 1 µM) | -0.032 | 0.462 | 0.575 | 0.726 | 0.169 | 0.0581 | 0.209 | 0.888 | 0.38 | 0.386 | 0.0543 | 0.22 | 0.971 | 0.627 | 0.211 | 0.317 | 0.283 | 0.188 | 0.195 | 0.167
7 | Cc1cc2ncnn2cc1Nc1ncc2c(n1)n(C1CCOCC1)c(=O)n2C [AZD7648] + C=CCn1c(=O)c2cnc(Nc3ccc(N4CCN(C)CC4)cc3)nc2n1-c1cccc(C(C)(C)O)n1 [AZD1775] (first compound max 10 µM, partner max 1 µM) | -0.0471 | 0.832 | 0.886 | 0.558 | 0.466 | 0.487 | 0.204 | 0.927 | 0.415 | 0.762 | 0.792 | 0.91 | 0.238 | 0.209 | 0.452 | 0.838 | 0.814 | 0.574 | 0.561 | 0.448
8 | Cc1cc2ncnn2cc1Nc1ncc2c(n1)n(C1CCOCC1)c(=O)n2C [AZD7648] + CCN(CCO)CCCOc1ccc2c(Nc3cc(CC(=O)Nc4cccc(F)c4)[nH]n3)ncnc2c1 [AZD2811] (first compound max 10 µM, 7x7, partner max 1 µM) | 0.0436 | 0.496 | 0.232 | 0.46 | 0 | 0.336 | 0.165 | 0.329 | 0.316 | 0.39 | 0.648 | 0.518 | 0.326 | 0.242 | 0.312 | 0.353 | 0.63 | 0.208 | 0.434 | 0.445
9 | COc1cc2c(cc1OCCCCCOc1cc3c(cc1OC)C(=O)N1C=C(C)C[C@H]1C=N3)N=C[C@@H]1CC(C)=CN1C2=O [SG3199] + O=C(c1cc(Cc2n[nH]c(=O)c3ccccc23)ccc1F)N1CCN(C(=O)C2CC2)CC1 [Olaparib] (first compound max 0.001 µM, 7x7, partner max 10 µM) | -0.0066 | 0.123 | 0.356 | 0.109 | 0.272 | 0.233 | 0.153 | 0.245 | 0.0649 | 0.214 | 0.187 | 0.213 | 0.0458 | 0.134 | 0.204 | 0.0926 | 0.136 | 0.0262 | 0.115 | 0.445
10 | Cc1cc2ncnn2cc1Nc1ncc2c(n1)n(C1CCOCC1)c(=O)n2C [AZD7648] + CN(C)CCCOc1ccc(-c2ccc3ncc4c(c3c2)n(C2CCOCC2)c(=O)n4C)cn1 [AZD0156] (first compound max 10 µM, 7x7, partner max 1 µM) | 0.0073 | 0.458 | 0.23 | 0.351 | 0 | 0.251 | 0.139 | 0.282 | 0.244 | 0.374 | 0.153 | 0.303 | 0.238 | 0.288 | 0.343 | 0.216 | 0.329 | 0.115 | 0.407 | 0.192
11 | CN(CCO)CC[C@H](CSc1ccccc1)Nc1ccc(S(=O)(=O)NC(=O)c2ccc(N3CCC([C@@H](O)c4ccccc4-c4ccc(Cl)cc4)CC3)cc2)cc1S(=O)(=O)C(F)(F)F [AZD4320] + Cc1cc2ncnn2cc1Nc1ncc2c(n1)n(C1CCOCC1)c(=O)n2C [AZD7648] (first compound max 1 µM, 7x7, partner max 10 µM) | -0.0475 | 0.525 | 0.655 | 0.9 | 0.0775 | 0.209 | 0.977 | 0.91 | 0.149 | 0.452 | 0.172 | 1 | 0.584 | 0.15 | 0.25 | 0.203 | 0.906 | 0.183 | 0.296 | 0.389
12 | C[C@@H](c1ccc2nccn2c1)n1nnc2ncc(-c3cnn(C)c3)nc21 [Savolitinib] + CC1(C)CCC(CN2CCN(c3ccc(C(=O)NS(=O)(=O)c4ccc(NCC5CCOCC5)c([N+](=O)[O-])c4)c(Oc4cnc5[nH]ccc5c4)c3)CC2)=C(c2ccc(Cl)cc2)C1 [Venetoclax] (first compound max 1 µM, 7x7, partner max 1 µM) | -0.0873 | 0.205 | 0.188 | 0.27 | 0.0719 | 0.251 | 0.395 | 0.201 | 0.092 | 0.2 | 0.0801 | 0.152 | 0.125 | 0.105 | 0.0973 | 0.305 | 0.204 | 0.0933 | 0.114 | 0.12
